Drawing on ChEMBL document CHEMBL1133898 (Bioorg Med Chem Lett, 2001), this text covers Ki and IC50 for 16 molecules.

In experiment [1] the target is T1, Sodium-dependent dopamine transporter (Rattus norvegicus, UniProt P23977). Nature of the experiment: Displacement of [3H][…] from dopamine transporter (DAT) of rat striatal membrane.
Experiment [2] concerns the target T2, Sodium-dependent serotonin transporter (Rattus norvegicus, UniProt P31652). The experiment is described as follows: Displacement of [3H]5-HT from serotonin transporter of rat brain. (In general: In a radioligand displacement assay an active substance lowers the binding of a labelled ligand.)
Experiment [3] deals with T3, Norepinephrine transporter (Rattus norvegicus, UniProt Q9WTR4). The experiment is described as follows: Displacement of [3H]NE from Norepinephrine transporter of rat brain.
Experiment [4] deals with T1, Sodium-dependent dopamine transporter. Nature of the experiment: Inhibition of high affinity uptake of [3H]DA using rat nerve endings obtained from brain regions enriched in DAT.
Experiment [5] deals with T3, Norepinephrine transporter. The experiment is described as follows: (§1) Inhibitory concentration binding to Norepinephrine transporter using 0.2 nM […].
Experiment [6] deals with T2, Sodium-dependent serotonin transporter. Nature of the experiment: Inhibitory concentration binding to Serotonin transporter using 0.5 nM […].
The target of experiment [7] is T1, Sodium-dependent dopamine transporter. Nature of the experiment: Inhibitory concentration binding to Dopamine transporter using 0.5 nM [3H]WIN-35428.
For experiment [8] the target is unchanged. Nature of the experiment: Inhibitory concentration binding to dopamine transporter using 0.5 nM [3H]WIN-35428.
Experiment [9] concerns the target T3, Norepinephrine transporter. Described as §1. Type of experiment: functional.
Experiment [10] addresses T3, Norepinephrine transporter. Nature of the experiment: Evaluated for ability to inhibit high affinity uptake of [3H]-NE using rat nerve endings obtained from brain regions enriched in Norepinephrine transporter. The experiment is classed as functional.
Experiment [11] addresses T2, Sodium-dependent serotonin transporter. The experiment is described as follows: Evaluated for ability to inhibit high affinity uptake of [3H]5-HT using rat nerve endings obtained from brain regions enriched in serotonin transporter (5HTT). Type of experiment: functional.
Experiment [12] shares this target. Nature of the experiment: Evaluated for its ability to inhibit high affinity uptake of [3H]-5-HT using rat nerve endings obtained from brain regions enriched in serotonin transporter (5HTT). The experiment is classed as functional.
For experiment [13], the target named is T3, Norepinephrine transporter. Nature of the experiment: Evaluated for its ability to inhibit high affinity uptake of [3H]NE using rat nerve endings obtained from brain regions enriched in norepinephrine transporter (NET). The experiment is classed as functional.

SMILES strings stand for the structures.

T2 sequence (P31652 whole entry): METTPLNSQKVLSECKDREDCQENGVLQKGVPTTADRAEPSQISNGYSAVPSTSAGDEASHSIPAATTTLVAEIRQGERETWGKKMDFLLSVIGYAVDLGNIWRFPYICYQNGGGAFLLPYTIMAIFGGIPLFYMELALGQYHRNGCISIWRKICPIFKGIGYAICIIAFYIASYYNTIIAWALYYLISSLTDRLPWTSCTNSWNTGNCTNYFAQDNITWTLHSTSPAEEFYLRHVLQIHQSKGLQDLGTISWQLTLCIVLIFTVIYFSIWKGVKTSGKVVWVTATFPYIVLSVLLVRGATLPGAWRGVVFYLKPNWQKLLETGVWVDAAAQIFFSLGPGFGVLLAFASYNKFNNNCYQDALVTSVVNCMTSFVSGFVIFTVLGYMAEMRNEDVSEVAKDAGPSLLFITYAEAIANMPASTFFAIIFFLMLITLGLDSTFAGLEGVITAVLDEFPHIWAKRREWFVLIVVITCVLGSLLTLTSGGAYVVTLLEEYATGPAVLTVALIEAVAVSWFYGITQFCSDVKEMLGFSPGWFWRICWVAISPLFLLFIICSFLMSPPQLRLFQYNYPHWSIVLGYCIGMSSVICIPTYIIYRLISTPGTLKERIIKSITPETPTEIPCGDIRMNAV
T3 sequence (Q9WTR4 whole entry): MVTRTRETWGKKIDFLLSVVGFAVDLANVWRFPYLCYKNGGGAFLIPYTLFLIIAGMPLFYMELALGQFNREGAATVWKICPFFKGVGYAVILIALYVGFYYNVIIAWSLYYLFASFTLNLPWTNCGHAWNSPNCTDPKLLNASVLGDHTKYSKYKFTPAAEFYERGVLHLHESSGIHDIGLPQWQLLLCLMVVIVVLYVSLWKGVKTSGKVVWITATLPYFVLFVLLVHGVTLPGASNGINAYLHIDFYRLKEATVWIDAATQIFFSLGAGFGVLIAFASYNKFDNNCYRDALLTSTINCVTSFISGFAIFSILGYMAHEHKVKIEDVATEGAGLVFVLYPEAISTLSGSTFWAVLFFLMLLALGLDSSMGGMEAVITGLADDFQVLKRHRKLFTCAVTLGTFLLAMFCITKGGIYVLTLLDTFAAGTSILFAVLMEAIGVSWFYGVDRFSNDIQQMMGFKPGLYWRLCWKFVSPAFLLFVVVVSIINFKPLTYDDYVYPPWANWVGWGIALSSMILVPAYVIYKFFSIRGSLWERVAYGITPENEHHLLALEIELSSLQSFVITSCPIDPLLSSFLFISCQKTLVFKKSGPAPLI
T1 sequence (P23977 whole entry): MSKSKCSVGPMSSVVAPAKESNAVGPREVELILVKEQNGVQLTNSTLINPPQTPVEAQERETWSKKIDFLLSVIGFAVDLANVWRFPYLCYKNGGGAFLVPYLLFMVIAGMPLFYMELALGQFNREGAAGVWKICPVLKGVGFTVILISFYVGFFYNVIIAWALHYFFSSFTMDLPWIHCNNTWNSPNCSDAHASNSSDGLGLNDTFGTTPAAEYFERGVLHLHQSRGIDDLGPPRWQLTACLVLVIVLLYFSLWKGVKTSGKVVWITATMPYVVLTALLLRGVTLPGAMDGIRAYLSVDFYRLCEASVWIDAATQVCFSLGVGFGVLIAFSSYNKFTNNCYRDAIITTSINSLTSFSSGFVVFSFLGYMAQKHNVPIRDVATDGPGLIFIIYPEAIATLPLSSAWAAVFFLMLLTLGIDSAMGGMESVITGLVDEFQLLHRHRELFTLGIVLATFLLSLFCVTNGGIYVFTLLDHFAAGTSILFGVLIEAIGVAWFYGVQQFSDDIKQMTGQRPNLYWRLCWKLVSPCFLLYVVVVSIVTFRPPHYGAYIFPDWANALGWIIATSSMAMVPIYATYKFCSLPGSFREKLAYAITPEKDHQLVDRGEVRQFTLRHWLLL

As usually defined, the Ki is a measure of affinity in units of concentration, obtained from inhibition or displacement. A lower Ki goes with tighter binding. Turning to `CN1CC[C@@H](c2ccc(Cl)cc2)[C@H](c2nc(-c3ccc(Br)cc3)no2)C1`, the Ki in experiment [1], in experiment [2], in experiment [3] and in [4] was over 3000 nM each time.

Broadly, the IC50 is the concentration needed to halve the response being measured. For `Cc1noc([C@H]2CN(C)CC[C@@H]2c2ccc(Cl)cc2)n1`, the Ki is 201 nM in experiment [1], 5960 nM in experiment [2], 256 nM in [3] and 187 nM in experiment [4]. For the same molecule, the values for the IC50 in [5], in experiment [6] and in experiment [7] were 363 nM, 2580 nM and 4.05 nM, respectively.

For the molecule `CN1CC[C@@H](c2ccc(Cl)cc2)[C@H](c2nc(-c3ccc(Cl)cc3)no2)C1`, the Ki in [1], in [2], in experiment [3] and in experiment [4] was over 3000 nM throughout.

Turning to `CC(C)c1noc([C@H]2CN(C)CC[C@@H]2c2ccc(Cl)cc2)n1`, the Ki was found to be 494 nM in [1], 2920 nM in experiment [2], 778 nM in [3] and 391 nM in experiment [4].

For `COc1ccc(-c2noc([C@H]3CN(C)CC[C@@H]3c3ccc(Cl)cc3)n2)cc1`, the Ki in experiment [1], in experiment [2], in [3] and in experiment [4] was over 3000 nM each time.

Consider `CC(C)c1noc([C@@H]2CN(C)CC[C@H]2c2ccc(Cl)cc2)n1`, for which the Ki was 2900 nM in experiment [1], 1220 nM in experiment [2], 2680 nM in experiment [3] and 3590 nM in experiment [4].

`CN1CC[C@H](c2ccc(Cl)cc2)[C@@H](c2nc(-c3ccc(Cl)cc3)no2)C1`: the Ki in experiment [1], in experiment [2], in experiment [3] and in experiment [4] was over 3000 nM each time. Moreover, the IC50 in experiment [8] stood at 4.06 nM; in experiment [9], 4070 nM; in experiment [6], 404 nM.

As for `CN1CC[C@H](c2ccc(Cl)cc2)[C@@H](c2nc(-c3ccccc3)no2)C1`, the IC50 is over 10000 nM in [10] and over 3000 nM in [11]. The molecule further displayed a Ki in [4] of 497 nM.

For `COC(=O)[C@@H]1CN(C)CC[C@H]1c1ccc(Cl)cc1`, the Ki amounted to 2000 nM in [1], 930 nM in experiment [2], 396 nM in [3] and 2930 nM in experiment [4].

In the case of `COC(=O)[C@H]1CN(C)CC[C@@H]1c1ccc(Cl)cc1`, the Ki was determined as 315 nM in [1], 8490 nM in experiment [2] and 252 nM in [3].

Consider `CN1CC[C@H](c2ccc(Cl)cc2)[C@@H](c2nc(-c3ccc4c(c3)OCO4)no2)C1`, for which the Ki in experiment [1], in experiment [2], in experiment [3] and in [4] was over 3000 nM in each case.

In the case of `CN1CC[C@@H](c2ccc(Cl)cc2)[C@H](c2nc(-c3ccccc3)no2)C1`, the IC50 in experiment [10] and in experiment [11] was over 3000 nM each time. This molecule gave a Ki in experiment [4] of 1710 nM.

Turning to `COc1ccc(-c2noc([C@@H]3CN(C)CC[C@H]3c3ccc(Cl)cc3)n2)cc1`, the inhibition constant (Ki) in experiment [1], in [2], in experiment [3] and in experiment [4] was over 3000 nM throughout.

As for `CN1CC[C@@H](c2ccc(Cl)cc2)[C@H](c2nc(-c3ccc4c(c3)OCO4)no2)C1`, the Ki in [1], in [2], in experiment [3] and in [4] was over 3000 nM in each case.

For the molecule `CN1CC[C@H](c2ccc(Cl)cc2)[C@@H](c2nc(-c3ccc(Br)cc3)no2)C1`, the Ki in experiment [1], in [2], in [3] and in [4] was over 3000 nM each time.

`Cc1noc([C@@H]2CN(C)CC[C@H]2c2ccc(Cl)cc2)n1`: the IC50 in experiment [12] was over 3000 nM; in experiment [13], over 1000 nM. In experiment [4], affinity was put at a Ki of 955 nM.
